Measurements as given in ChEMBL document CHEMBL4725402, “Discovery of thiapyran-pyrimidine derivatives as potential EGFR inhibitors” (Bioorg Med Chem, 2020).
Activity calls are given as the source filed them. No cut-off for these calls is given here.

How the values were obtained:
[1] = Selectivity index, ratio of IC50 for human L02 cells to IC50 for human A549 cells assessed as reduction in cell viability measured after 72 hrs by MTT assay; type: toxicity; conditions: L02 cells versus A549 cells, read-out: Ratio IC50
[2] = tested on: MCF7; assay: Antiproliferation activity against human MCF7 cells assessed as reduction in cell viability measured after 72 hrs by MTT assay; type: functional, cell-based; conditions: MCF7, 72 h
[3] = target: Epidermal growth factor receptor (Homo sapiens, UniProt P00533, T790M); assay: Inhibition of EGFR T790M mutant (unknown origin) using FAM-labelled peptide as substrate incubated for 10 mins fin presence of ATP by Kinase Glo luminescence assay
[4] = tested on: HeLa; assay: Antiproliferation activity against human HeLa cells assessed as reduction in cell viability measured after 72 hrs by MTT assay; type: functional, cell-based
[5] = species: Homo sapiens; assay: Inhibition of PI3K (unknown origin) at 1 uM relative to control
[6] = target: Hepatocyte growth factor receptor (Homo sapiens) (UniProt P08581); assay: Inhibition of C-MET (unknown origin) at 1 uM relative to control
[7] = target: Epidermal growth factor receptor (Homo sapiens, UniProt P00533, L858R/T790M); assay: Inhibition of EGFR T790M/L858R mutant (unknown origin) using FAM-labelled peptide as substrate incubated for 10 mins in presence of ATP by Kinase Glo luminescence assay
[8] = target: Epidermal growth factor receptor (Homo sapiens, UniProt P00533); assay: Inhibition of wild type EGFR (unknown origin) using FAM-labelled peptide as substrate incubated for 10 mins in presence of ATP by Kinase Glo luminescence assay
[9] = target: Serine/threonine-protein kinase mTOR (Homo sapiens) (UniProt P42345); assay: Inhibition of mTOR (unknown origin) at 1 uM relative to control
[10] = tested on: A549; assay: Antiproliferation activity against human A549 cells assessed as reduction in cell viability measured after 72 hrs by MTT assay; type: functional, cell-based; conditions: A549, 72 h
[11] = tested on: NCI-H1975; assay: Antiproliferation activity against human NCI-H1975 cells harboring EGFR T790M/L858R mutation assessed as reduction in cell viability measured after 72 hrs by MTT assay; type: functional, cell-based; conditions: NCI-H1975, 72 h
[12] = tested on: L02; assay: Cytotoxicity against human L02 cells assessed as reduction in cell viability measured after 72 hrs by MTT assay; type: cell-based; conditions: L02, 72 h
[13] = target: Vascular endothelial growth factor receptor 2 (Homo sapiens) (UniProt P35968); assay: Inhibition of KDR (unknown origin) at 1 uM relative to control
[14] = tested on: A549; assay: Cell cycle arrest in human A549 cells assessed as accumulation at G2/M phase at 1 uM incubated for 48 hrs […] staining based flow cytometric analysis (reference value: 2.67 %); type: functional
[15] = tested on: NCI-H1975; assay: Induction of apoptosis in human H1975 cells assessed as late apoptotic cells at 10 uM incubated for 48 hrs Annexin V-FITC staining based flow cytometric analysis (reference value: 1.77 %); type: functional
[16] = tested on: A549; assay: Cell cycle arrest in human A549 cells assessed as accumulation at G2/M phase at 10 uM incubated for 48 hrs […] staining based flow cytometric analysis (reference value: 2.67 %); type: functional
[17] = tested on: NCI-H1975; assay: Induction of apoptosis in human H1975 cells assessed as necrotic cells at 5 uM incubated for 48 hrs Annexin V-FITC staining based flow cytometric analysis (reference value: 0.08 %); type: functional
[18] = tested on: NCI-H1975; assay: Induction of apoptosis in human H1975 cells assessed as early apoptotic cells at 10 uM incubated for 48 hrs Annexin V-FITC staining based flow cytometric analysis (reference value: 2.06 %); type: functional
[19] = tested on: NCI-H1975; assay: Induction of morphological changes in human H1975 cells assessed as chromatin agglutination in nucleus at 0.01 to 0.10 uM incubated for 6 hrs by Hoechst33258 staining-based fluorescent microscopic analysis; type: functional, cell-based; conditions: dose microM 0.01-0.10, time 6.0 hrs
[20] = tested on: NCI-H1975; assay: Induction of apoptosis in human H1975 cells assessed as late apoptotic cells at 1 to 10 uM incubated for 48 hrs Annexin V-FITC staining based flow cytometric analysis; type: functional, cell-based; conditions: dose microM 1-10, time […]
[21] = tested on: NCI-H1975; assay: Induction of morphological changes in human H1975 cells assessed as dense nuclei staining at 0.01 to 0.10 uM incubated for 6 hrs by Hoechst 33258 staining-based fluorescent microscopic analysis; type: functional, cell-based; conditions: dose microM 0.01-0.10, time 6.0 hrs
[22] = tested on: NCI-H1975; assay: Induction of apoptosis in human H1975 cells assessed as necrotic cells at 10 uM incubated for 48 hrs Annexin V-FITC staining based flow cytometric analysis (reference value: 0.08 %); type: functional
[23] = tested on: A549; assay: Cell cycle arrest in human A549 cells assessed as accumulation at G0/G1 phase at 1 uM incubated for 48 hrs […] staining based flow cytometric analysis (reference value: 74.69 %); type: functional
[24] = tested on: NCI-H1975; assay: Induction of apoptosis in human H1975 cells assessed as early apoptotic cells at 5 uM incubated for 48 hrs Annexin V-FITC staining based flow cytometric analysis (reference value: 2.06 %); type: functional
[25] = tested on: A549; assay: Cell cycle arrest in human A549 cells assessed as accumulation at S phase at 1 uM incubated for 48 hrs […] staining based flow cytometric analysis (reference value: 22.64 %); type: functional
[26] = tested on: A549; assay: Cell cycle arrest in human A549 cells assessed as accumulation at G0/G1 phase at 10 uM incubated for 48 hrs […] staining based flow cytometric analysis (reference value: 74.69 %); type: functional
[27] = tested on: NCI-H1975; assay: Induction of apoptosis in human H1975 cells assessed as live cells at 5 uM incubated for 48 hrs Annexin V-FITC staining based flow cytometric analysis (reference value: 96.09 %); type: functional
[28] = tested on: NCI-H1975; assay: Induction of apoptosis in human H1975 cells assessed as late apoptotic cells at 5 uM incubated for 48 hrs Annexin V-FITC staining based flow cytometric analysis (reference value: 1.77 %); type: functional
[29] = tested on: NCI-H1975; assay: Induction of apoptosis in human H1975 cells assessed as live cells at 10 uM incubated for 48 hrs Annexin V-FITC staining based flow cytometric analysis (reference value: 96.09 %); type: functional
[30] = tested on: A549; assay: Cell cycle arrest in human A549 cells assessed as accumulation at S phase at 5 uM incubated for 48 hrs […] staining based flow cytometric analysis (reference value: 22.64 %); type: functional
[31] = tested on: A549; assay: Cell cycle arrest in human A549 cells assessed as accumulation at G2/M phase at 1 to 10 uM incubated for 48 hrs […] staining based flow cytometric analysis; type: functional; conditions: dose microM 1-10, time […]
[32] = tested on: A549; assay: Cell cycle arrest in human A549 cells assessed as accumulation at G0/G1 phase at 5 uM incubated for 48 hrs […] staining based flow cytometric analysis (reference value: 74.69 %); type: functional
[33] = tested on: NCI-H1975; assay: Induction of apoptosis in human H1975 cells assessed as late apoptotic cells at 1 uM incubated for 48 hrs Annexin V-FITC staining based flow cytometric analysis (reference value: 1.77 %); type: functional
[34] = tested on: A549; assay: Cell cycle arrest in human A549 cells assessed as accumulation at S phase at 10 uM incubated for 48 hrs […] staining based flow cytometric analysis (reference value: 22.64 %); type: functional
[35] = tested on: NCI-H1975; assay: Induction of apoptosis in human H1975 cells assessed as early apoptotic cells at 1 uM incubated for 48 hrs Annexin V-FITC staining based flow cytometric analysis (reference value: 2.06 %); type: functional
[36] = tested on: NCI-H1975; assay: Induction of morphological changes in human H1975 cells assessed as chromatin shrinkage and apoptotic body formation at 0.01 to 0.10 uM incubated for 6 hrs by AO staining-based fluorescent microscopic analysis; type: functional, cell-based; conditions: dose microM 0.01-0.10, time 6.0 hrs
[37] = tested on: NCI-H1975; assay: Induction of apoptosis in human H1975 cells assessed as live cells at 1 uM incubated for 48 hrs Annexin V-FITC staining based flow cytometric analysis (reference value: 96.09 %); type: functional
[38] = tested on: A549; assay: Cell cycle arrest in human A549 cells assessed as accumulation at G2/M phase at 5 uM incubated for 48 hrs […] staining based flow cytometric analysis (reference value: 2.67 %); type: functional
[39] = tested on: NCI-H1975; assay: Induction of apoptosis in human H1975 cells assessed as necrotic cells at 1 uM incubated for 48 hrs Annexin V-FITC staining based flow cytometric analysis (reference value: 0.08 %); type: functional

Chain of Epidermal growth factor receptor (Homo sapiens, UniProt P00533, L858R/T790M) (P00533 25-1210 T790M/L858R limits assumed): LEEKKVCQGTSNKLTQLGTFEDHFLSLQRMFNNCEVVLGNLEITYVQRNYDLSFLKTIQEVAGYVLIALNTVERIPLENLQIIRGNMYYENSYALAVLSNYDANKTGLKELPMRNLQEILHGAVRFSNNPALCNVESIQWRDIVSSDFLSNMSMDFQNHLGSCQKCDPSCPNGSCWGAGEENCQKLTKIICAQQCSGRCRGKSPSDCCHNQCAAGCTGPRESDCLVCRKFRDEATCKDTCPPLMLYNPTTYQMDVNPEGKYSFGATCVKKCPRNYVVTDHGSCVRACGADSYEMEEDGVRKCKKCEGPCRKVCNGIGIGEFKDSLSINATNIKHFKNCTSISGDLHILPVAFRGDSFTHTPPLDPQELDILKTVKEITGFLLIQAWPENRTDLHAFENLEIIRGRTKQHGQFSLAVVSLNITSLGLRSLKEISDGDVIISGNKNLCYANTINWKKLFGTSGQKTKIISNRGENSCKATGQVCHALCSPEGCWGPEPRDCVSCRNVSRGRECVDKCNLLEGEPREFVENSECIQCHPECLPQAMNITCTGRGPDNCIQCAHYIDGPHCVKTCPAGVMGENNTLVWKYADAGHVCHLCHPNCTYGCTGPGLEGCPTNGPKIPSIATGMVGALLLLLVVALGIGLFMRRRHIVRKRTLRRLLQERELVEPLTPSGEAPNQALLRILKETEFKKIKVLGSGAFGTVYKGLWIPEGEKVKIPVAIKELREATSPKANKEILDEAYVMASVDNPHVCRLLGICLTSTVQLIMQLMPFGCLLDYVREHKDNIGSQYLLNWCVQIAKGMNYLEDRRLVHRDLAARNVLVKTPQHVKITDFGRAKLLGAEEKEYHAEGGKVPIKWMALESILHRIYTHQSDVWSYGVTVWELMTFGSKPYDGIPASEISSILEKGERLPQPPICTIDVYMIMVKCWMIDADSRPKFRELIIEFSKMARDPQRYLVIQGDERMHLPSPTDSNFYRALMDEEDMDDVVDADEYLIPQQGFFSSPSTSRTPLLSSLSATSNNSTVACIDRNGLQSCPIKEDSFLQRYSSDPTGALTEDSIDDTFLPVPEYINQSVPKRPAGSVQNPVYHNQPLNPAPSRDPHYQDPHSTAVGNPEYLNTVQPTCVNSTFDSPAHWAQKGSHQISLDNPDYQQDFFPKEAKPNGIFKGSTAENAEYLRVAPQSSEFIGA
Chain of Epidermal growth factor receptor (Homo sapiens, UniProt P00533) (P00533 whole entry): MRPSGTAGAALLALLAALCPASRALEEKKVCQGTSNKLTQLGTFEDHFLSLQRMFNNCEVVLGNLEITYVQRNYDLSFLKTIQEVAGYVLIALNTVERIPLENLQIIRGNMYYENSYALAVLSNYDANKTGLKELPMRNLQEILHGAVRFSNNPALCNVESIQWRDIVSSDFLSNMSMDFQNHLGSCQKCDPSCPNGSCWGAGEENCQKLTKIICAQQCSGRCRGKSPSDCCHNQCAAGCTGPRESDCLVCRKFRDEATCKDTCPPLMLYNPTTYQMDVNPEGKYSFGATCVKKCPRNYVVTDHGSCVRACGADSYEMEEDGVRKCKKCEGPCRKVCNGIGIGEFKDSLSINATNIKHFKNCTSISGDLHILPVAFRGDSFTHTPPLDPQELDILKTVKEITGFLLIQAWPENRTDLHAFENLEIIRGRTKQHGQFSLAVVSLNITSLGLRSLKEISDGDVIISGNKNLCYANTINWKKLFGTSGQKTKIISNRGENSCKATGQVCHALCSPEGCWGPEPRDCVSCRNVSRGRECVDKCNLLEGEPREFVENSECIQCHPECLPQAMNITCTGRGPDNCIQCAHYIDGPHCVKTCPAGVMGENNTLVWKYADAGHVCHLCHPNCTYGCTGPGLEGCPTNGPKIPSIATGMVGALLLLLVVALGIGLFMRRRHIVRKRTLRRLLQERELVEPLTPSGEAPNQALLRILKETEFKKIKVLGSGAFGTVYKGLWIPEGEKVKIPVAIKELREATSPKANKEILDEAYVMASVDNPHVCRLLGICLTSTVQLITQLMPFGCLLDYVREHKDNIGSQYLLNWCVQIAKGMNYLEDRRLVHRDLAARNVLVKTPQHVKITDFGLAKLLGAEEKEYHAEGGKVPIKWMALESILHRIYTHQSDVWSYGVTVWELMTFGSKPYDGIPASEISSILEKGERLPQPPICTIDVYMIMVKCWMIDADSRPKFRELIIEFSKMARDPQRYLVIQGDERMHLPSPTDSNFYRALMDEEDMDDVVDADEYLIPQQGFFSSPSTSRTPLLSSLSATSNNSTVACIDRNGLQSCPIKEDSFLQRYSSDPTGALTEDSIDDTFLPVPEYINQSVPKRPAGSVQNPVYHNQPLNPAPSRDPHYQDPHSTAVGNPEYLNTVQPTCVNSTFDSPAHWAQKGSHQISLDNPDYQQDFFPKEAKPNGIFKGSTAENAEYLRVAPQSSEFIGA
Chain of Hepatocyte growth factor receptor (Homo sapiens) (P08581 whole entry): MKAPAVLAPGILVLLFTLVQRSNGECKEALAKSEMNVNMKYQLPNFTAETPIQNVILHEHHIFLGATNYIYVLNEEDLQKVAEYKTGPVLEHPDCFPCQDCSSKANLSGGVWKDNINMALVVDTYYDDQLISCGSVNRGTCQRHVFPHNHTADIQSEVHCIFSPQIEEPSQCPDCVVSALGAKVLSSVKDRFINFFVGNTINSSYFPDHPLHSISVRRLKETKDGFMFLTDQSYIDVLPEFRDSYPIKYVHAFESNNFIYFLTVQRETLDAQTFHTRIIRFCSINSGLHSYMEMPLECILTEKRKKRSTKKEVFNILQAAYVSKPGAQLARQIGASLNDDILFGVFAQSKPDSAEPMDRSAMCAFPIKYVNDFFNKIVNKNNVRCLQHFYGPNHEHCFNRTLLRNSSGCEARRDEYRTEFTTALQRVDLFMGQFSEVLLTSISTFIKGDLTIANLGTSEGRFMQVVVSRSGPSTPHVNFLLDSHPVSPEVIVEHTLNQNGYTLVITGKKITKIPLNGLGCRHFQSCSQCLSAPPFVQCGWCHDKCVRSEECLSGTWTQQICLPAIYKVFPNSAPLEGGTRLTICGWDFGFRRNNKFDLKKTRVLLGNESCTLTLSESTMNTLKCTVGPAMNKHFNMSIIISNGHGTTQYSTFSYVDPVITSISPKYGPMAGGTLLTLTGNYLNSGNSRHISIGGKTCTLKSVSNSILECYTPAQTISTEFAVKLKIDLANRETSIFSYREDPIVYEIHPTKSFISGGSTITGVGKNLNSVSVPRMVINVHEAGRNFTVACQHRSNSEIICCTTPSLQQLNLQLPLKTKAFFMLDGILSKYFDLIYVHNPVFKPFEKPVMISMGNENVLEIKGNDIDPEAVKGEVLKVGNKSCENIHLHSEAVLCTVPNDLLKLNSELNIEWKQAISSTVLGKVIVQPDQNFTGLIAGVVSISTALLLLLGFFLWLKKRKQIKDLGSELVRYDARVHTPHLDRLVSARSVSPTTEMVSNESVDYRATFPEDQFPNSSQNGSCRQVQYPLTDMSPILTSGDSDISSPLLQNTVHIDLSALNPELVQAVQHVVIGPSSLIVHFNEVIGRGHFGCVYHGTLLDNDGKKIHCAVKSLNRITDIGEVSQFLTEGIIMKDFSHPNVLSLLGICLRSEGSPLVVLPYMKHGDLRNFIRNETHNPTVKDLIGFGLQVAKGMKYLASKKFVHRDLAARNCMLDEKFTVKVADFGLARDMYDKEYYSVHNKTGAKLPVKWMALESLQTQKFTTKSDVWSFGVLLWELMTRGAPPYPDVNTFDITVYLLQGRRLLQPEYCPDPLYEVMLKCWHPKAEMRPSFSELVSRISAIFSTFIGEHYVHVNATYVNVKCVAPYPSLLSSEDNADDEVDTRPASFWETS
Chain of Vascular endothelial growth factor receptor 2 (Homo sapiens) (P35968 whole entry): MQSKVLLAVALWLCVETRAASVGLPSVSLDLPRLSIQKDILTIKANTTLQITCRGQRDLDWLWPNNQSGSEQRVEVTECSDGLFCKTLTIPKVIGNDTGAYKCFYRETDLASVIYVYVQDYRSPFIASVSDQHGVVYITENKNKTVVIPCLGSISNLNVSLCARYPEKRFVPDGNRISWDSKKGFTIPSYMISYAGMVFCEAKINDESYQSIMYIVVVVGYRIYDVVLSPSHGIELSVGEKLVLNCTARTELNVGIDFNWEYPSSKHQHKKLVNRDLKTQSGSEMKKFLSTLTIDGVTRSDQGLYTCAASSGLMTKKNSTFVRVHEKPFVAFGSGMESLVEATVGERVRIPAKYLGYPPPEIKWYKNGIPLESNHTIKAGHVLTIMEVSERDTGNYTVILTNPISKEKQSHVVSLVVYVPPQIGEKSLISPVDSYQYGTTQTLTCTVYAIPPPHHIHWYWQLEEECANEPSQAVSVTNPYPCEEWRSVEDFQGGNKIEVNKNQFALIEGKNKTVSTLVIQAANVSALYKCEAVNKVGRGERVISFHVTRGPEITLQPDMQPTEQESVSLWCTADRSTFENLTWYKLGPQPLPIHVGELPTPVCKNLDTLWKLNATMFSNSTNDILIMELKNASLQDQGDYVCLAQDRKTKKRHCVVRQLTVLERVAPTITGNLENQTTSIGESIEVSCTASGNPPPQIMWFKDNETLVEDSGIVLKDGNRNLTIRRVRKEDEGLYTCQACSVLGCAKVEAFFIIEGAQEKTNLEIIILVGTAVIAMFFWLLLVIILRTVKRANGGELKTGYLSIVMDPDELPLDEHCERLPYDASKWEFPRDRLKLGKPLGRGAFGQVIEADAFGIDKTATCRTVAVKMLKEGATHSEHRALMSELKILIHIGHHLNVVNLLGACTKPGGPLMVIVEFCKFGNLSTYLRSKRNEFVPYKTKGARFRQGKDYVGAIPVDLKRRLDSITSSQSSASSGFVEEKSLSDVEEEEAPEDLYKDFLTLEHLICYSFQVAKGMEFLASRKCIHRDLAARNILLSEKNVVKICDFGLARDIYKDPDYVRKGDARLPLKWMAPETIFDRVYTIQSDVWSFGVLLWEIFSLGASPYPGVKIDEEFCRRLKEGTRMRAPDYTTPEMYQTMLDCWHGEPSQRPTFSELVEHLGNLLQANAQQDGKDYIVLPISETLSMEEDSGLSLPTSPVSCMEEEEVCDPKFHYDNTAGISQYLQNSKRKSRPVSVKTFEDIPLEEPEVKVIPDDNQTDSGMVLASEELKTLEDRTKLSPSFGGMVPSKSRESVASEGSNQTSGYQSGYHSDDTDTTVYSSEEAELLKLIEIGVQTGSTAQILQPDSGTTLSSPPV

| Structure (SMILES) | selectivity ratio at 72 h [1] | IC50 [2] [µM] | IC50 [3] [µM] | IC50 [4] [µM] | inhibition [5] | inhibition [6] [%] | IC50 [7] [µM] | IC50 [8] [µM] | inhibition [9] | IC50 [10] [µM] | IC50 [11] [µM] | IC50 [12] [µM] | inhibition [13] | Activity [17] [%] | Activity [24] [%] | Activity [27] [%] | Activity [28] [%] | Activity [30] [%] | Activity [32] [%] | Activity [38] [%] | other results |
| --- | --- | --- | --- | --- | --- | --- | --- | --- | --- | --- | --- | --- | --- | --- | --- | --- | --- | --- | --- | --- | --- |
| CCC/C=C/C(=O)Nc1cccc(Oc2nc(Nc3cccc(C#N)c3)nc3c2CSCC3)c1 | > 8.64 | 15.3 | > 1 | 7.22 | 62.2% | 3.6 | > 1 | > 1 | 10% | 5.79 | 10.8 | > 50 | – | – | – | – | – | – | – | – | – |
| C=CC(=O)Nc1cccc(Oc2nc(Nc3cccc(C#N)c3)nc3c2CSCC3)c1 | > 7.29 | 21.7 | > 1 | 34.9 | 44.3% | 2.4 | > 1 | > 1 | – | 6.86 | 4.59 | > 50 | -0.9% | – | – | – | – | – | – | – | – |
| C=CC(=O)Nc1cccc(Oc2nc(Nc3ccc(OC)cc3)nc3c2CSCC3)c1 | > 11.8 | 11.7 | 0.542 | 20.9 | 48.1% | 0.5 | 0.132 | > 1 | -1.2% | 4.22 | 2.19 | > 50 | 3.9% | 0.6 | 7.5 | 81.2 | 10.7 | 14.44 | 74.87 | 10.69 | Activity [14]: 8.62%; Activity [15]: 15.46%; Activity [16]: 23.23%; Activity [18]: 5.2%; Activity [19]: Active; Activity [20]: Dose-dependent effect; Activity [21]: Active; Activity [22]: 0.58%; Activity [23]: 71.16%; Activity [25]: 20.22%; Activity [26]: 62.57%; Activity [29]: 78.76%; Activity [31]: Dose-dependent effect; Activity [33]: 8.23%; Activity [34]: 14.2%; Activity [35]: 3.76%; Activity [36]: Active; Activity [37]: 87.16%; Activity [39]: 0.85% |
| C=CC(=O)Nc1cccc(Oc2nc(Nc3ccc(N4CCN(C)CC4)cc3)nc3ccsc23)c1 [OLMUTINIB] | – | – | – | – | inactive | 7.1 | – | – | inactive | – | – | – | inactive | 0.34 | 4.63 | 84.27 | 10.76 | 14.65 | 76.63 | 8.72 | – |
